In patent publication US20230416248A1, “COMPOUNDS AND USES THEREOF” (Foghorn Therapeutics Inc., priority 2020, published 2023):
pIC50: −log10 of the molar value.

Experiments:
BRM = molecular target: T1, BRM (Homo sapiens, UniProt P51531); assay: ATPase catalytic activity of BRM, ADP-Glo in vitro biochemical assay; details: for pIC50: ATPase catalytic activity, ADP-Glo, 30 nM BRM, 400 μM ATP; for Ratio*: ratio of BRG1 IC50 to BRM IC50
T1 construct: made in house; host or cells: High Five insect cells
T1 sequence (P51531 whole entry): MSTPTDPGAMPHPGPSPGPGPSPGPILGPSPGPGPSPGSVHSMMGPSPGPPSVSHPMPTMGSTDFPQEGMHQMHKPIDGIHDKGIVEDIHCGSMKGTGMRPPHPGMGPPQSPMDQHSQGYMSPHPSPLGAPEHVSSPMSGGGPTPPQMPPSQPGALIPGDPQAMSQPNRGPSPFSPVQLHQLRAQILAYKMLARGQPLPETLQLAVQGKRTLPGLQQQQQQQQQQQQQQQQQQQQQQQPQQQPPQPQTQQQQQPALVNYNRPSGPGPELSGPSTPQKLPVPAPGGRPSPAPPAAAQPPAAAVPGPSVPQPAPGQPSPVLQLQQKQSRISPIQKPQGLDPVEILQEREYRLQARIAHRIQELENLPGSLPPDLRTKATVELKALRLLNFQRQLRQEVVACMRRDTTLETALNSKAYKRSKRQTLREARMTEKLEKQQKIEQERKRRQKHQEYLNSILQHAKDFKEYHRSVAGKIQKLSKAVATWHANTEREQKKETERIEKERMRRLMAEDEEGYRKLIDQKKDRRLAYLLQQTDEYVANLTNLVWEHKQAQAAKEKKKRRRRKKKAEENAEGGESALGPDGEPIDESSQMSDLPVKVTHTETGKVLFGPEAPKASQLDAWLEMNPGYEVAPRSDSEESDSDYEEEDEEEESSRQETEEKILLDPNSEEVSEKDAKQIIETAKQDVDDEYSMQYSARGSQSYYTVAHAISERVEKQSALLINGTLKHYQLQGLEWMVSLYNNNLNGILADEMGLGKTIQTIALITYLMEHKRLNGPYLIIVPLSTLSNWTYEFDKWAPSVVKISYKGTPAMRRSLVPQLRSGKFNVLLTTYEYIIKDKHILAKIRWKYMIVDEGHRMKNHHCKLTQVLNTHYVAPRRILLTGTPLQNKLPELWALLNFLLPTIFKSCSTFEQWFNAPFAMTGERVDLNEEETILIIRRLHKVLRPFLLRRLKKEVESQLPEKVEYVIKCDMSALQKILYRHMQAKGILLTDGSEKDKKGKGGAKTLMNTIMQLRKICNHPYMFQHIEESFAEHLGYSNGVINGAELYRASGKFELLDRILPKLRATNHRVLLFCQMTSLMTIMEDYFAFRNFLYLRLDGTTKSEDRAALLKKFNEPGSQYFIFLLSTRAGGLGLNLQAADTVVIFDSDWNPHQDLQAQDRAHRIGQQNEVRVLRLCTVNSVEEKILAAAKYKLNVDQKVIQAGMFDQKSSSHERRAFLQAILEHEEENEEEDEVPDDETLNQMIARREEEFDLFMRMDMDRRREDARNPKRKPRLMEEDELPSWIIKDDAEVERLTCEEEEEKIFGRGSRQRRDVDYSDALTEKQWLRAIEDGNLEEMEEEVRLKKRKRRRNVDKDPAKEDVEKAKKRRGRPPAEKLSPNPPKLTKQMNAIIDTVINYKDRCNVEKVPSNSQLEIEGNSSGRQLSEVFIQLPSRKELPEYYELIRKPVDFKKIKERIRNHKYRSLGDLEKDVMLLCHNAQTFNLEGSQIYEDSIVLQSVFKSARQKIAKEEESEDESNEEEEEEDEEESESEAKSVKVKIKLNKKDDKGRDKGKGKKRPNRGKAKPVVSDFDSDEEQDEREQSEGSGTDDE
How it was run: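 ADP-Glo luminescence, after depletion of leftover ATP and conversion of ADP, reported the activity. The 1 h room-temperature reaction held 400 μM ATP, 20 nM salmon sperm DNA and 30 nM BRM in 20 mM Tris pH 8, 20 mM MgCl2, 50 mM NaCl, 0.1% Tween-20, 1 mM DTT.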

BRG-1 = molecular target: T2, BRG-1 (Homo sapiens, UniProt P51532); assay: ATPase catalytic activity of BRG-1, ADP-Glo in vitro biochemical assay; details: ATPase catalytic activity, ADP-Glo; 30 nM BRG-1, 400 μM ATP; read-out: BRG1 IC50
T2 construct: made in house; host or cells: High Five insect cells
T2 sequence (P51532 whole entry): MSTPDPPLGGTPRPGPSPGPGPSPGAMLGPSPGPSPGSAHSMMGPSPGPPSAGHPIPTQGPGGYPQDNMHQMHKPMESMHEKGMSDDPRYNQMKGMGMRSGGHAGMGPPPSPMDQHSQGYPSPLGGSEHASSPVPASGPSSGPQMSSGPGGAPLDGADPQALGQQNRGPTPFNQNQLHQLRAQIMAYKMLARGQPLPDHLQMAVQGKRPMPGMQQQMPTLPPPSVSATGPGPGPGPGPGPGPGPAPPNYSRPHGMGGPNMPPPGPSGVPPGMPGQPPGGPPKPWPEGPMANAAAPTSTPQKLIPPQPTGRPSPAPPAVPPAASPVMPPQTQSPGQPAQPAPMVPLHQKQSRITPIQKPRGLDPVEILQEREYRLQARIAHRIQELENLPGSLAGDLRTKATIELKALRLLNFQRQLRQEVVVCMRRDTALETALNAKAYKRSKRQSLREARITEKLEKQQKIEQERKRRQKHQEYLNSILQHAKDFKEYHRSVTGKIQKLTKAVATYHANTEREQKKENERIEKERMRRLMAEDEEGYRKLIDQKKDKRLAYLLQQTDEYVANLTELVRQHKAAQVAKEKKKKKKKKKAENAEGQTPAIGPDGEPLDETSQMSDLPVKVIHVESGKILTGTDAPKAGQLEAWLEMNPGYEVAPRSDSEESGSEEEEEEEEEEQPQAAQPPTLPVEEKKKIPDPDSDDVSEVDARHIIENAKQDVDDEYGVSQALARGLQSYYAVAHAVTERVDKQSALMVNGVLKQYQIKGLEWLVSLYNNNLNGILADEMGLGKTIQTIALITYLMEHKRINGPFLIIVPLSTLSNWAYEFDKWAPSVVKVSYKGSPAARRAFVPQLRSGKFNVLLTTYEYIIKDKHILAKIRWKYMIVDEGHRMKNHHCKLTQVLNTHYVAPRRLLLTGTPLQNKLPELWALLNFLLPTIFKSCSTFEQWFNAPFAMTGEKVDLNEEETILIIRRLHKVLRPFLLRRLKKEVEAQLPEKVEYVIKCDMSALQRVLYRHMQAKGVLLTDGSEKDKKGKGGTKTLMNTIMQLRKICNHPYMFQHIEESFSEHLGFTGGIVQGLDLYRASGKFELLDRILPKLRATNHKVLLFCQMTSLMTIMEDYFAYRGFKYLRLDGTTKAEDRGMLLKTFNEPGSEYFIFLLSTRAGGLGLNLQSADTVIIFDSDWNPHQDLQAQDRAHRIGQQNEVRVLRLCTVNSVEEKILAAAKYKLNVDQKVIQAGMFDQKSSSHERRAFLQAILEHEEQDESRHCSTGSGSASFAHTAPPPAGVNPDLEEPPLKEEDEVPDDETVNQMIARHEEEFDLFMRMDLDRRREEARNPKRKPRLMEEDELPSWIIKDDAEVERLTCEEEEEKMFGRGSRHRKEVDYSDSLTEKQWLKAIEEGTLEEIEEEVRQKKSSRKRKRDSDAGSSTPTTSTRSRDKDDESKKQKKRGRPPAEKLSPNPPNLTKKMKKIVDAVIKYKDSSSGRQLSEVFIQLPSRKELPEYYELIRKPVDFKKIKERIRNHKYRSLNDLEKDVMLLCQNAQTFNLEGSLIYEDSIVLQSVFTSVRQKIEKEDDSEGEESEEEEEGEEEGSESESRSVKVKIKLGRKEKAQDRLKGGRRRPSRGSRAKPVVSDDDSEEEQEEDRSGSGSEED
How it was run: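 Luminescence read-out: ADP formed by BRG-1 ATPase is converted to ATP and detected by luciferase. Residual ATP is first removed with ADP-Glo Reagent for 40 min at RT; detection reagent is then incubated 60 min at RT before reading.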

pIC50 (BRM)	Ratio* (BRM)	pIC50 (BRG-1)	SMILES
8.34	5.44	7.60	O=C(NCc1cc2nc(N3CCCc4c(OC5COC5)cccc43)ccc2cn1)c1ccc2c(c1)S(=O)(=O)CCOC2 [Compound 555]
7.95	20.89	6.63	Cc1ccc2c(n1)N(c1ccc3cnc(CNC(=O)c4ccc5c(c4)S(=O)(=O)CCOC5)cc3n1)CCO2 [Compound 557]
8.03	14.96	6.86	N#Cc1ccc2c(c1)N(c1ccc3cnc(CNC(=O)c4ccc5c(c4)S(=O)(=O)CCOC5)cc3n1)CCC2 [Compound 558]
7.17	12.50	6.08	CO[C@@H](C)c1ccc2c(n1)N(c1ccc3cnc(CNC(=O)c4ccc5c(c4)S(=O)(=O)CCOC5)cc3n1)CCC2 [Compound 561]
7.47	26.25	6.05	CCOCc1ccc2c(n1)N(c1ccc3cnc(CNC(=O)c4ccc5c(c4)S(=O)(=O)CCOC5)cc3n1)CCC2 [Compound 564]
7.94	12.06	6.86	COc1cnc2c(c1)CCCN2c1ccc2cnc(CNC(=O)c3ccc4c(c3)S(=O)(=O)CCOC4)cc2n1 [Compound 565]
7.49	20.83	6.17	O=C(NCc1cc2nc(N3CCCc4ccc(N5CCC5)nc43)ccc2cn1)c1ccc2c(c1)S(=O)(=O)CCOC2 [Compound 566]
6.97	9.95	5.98	COc1ccc2c(n1)N(c1ccc3cnc(CNC(=O)c4ccc5c(c4)S(=O)(=O)CCOC5)cc3n1)CCC2 [Compound 568]
6.81	3.32	6.29	CN1CCCCc2ccc(-c3ccc4cnc(CNC(=O)c5ccc6c(c5)S(=O)(=O)CCOC6)cc4n3)nc21 [Compound 569]
7.17	8.32	6.25	O=C(NCc1cc2nc(N3CCCc4ccc(C(F)(F)F)nc43)ccc2cn1)c1ccc2c(c1)S(=O)(=O)CCOC2 [Compound 570]
8.10	5.56	7.36	CCOc1ccnc2c1CCCN2c1ccc2cnc(CNC(=O)c3ccc4c(c3)S(=O)(=O)CCOC4)cc2n1 [Compound 573]
7.05	18.86	5.78	CCOc1ccc2c(n1)N(c1ccc3cnc(CNC(=O)c4ccc5c(c4)S(=O)(=O)CCOC5)cc3n1)CCC2 [Compound 576]
6.96	17.41	5.72	O=C(NCc1cc2nc(N3CCOc4ccc(C(F)(F)F)nc43)ccc2cn1)c1ccc2c(c1)S(=O)(=O)CCOC2 [Compound 583]
8.26	14.77	7.09	COCCOc1ccc2c(c1)N(c1ccc3cnc(CNC(=O)c4ccc5c(c4)S(=O)(=O)CCOC5)cc3n1)CCC2 [Compound 586]
7.54	14.25	6.39	O=C(NCc1cc2nc(N3CCCc4cc(Cl)cnc43)ccc2cn1)c1ccc2c(c1)S(=O)(=O)CCOC2 [Compound 588]
7.11	13.88	5.97	O=C(NCc1cc2nc(N3CCCc4ccc(OCC5CC5)nc43)ccc2cn1)c1ccc2c(c1)S(=O)(=O)CCOC2 [Compound 589]
7.65	7.93	6.75	COCc1cc2c(nc1C)N(c1ccc3cnc(CNC(=O)c4ccc5c(c4)S(=O)(=O)CCOC5)cc3n1)CCC2 [Compound 590]
7.66	10.98	6.62	O=C(NCc1cc2nc(N3CCCc4cc(F)cnc43)ccc2cn1)c1ccc2c(c1)S(=O)(=O)CCOC2 [Compound 591]
6.61	9.02	5.66	Cc1ccc2c(n1)N(c1ccc3cnc(CNC(=O)c4ccc5c(c4)S(=O)(=O)CCOC5)cc3n1)CCN2C [Compound 593]
7.43	31.92	5.93	O=C(NCc1cc2nc(N3CCOc4ccc(C(F)F)nc43)ccc2cn1)c1ccc2c(c1)S(=O)(=O)CCOC2 [Compound 594]

Continued, compound first:

SMILES	pIC50 (BRM)	Ratio* (BRM)	pIC50 (BRG-1)
Cc1cnc2c(c1)OCCN2c1ccc2cnc(CNC(=O)c3cc(C)c4c(c3)S(=O)(=O)CCOC4)cc2n1 [Compound 549]	8.14	17.80	6.88
Cc1cnc2c(c1)OCCN2c1ccc2cnc(CNC(=O)c3cc(F)c4c(c3)S(=O)(=O)CCOC4)cc2n1 [Compound 550]	8.28	12.09	7.19
Cc1ccc2c(c1)OCCN2c1ccc2cnc(CNC(=O)c3ccc4c(c3)S(=O)(=O)CCCO4)cc2n1 [Compound 551]	7.69	19.65	6.40
Cc1cnc2c(c1)OCCN2c1ccc2cnc(CNC(=O)c3cc(Cl)c4c(c3)S(=O)(=O)CCOC4)cc2n1 [Compound 552]	8.01	19.48	6.72
C[C@@H]1CN(c2cccc(-c3ccc4cnc(CNC(=O)c5cc(Cl)c6c(c5)S(=O)(=O)CCO[C@@H]6C)cc4n3)n2)C[C@H](C)O1 [Compound 553]	7.69	22.48	6.34
Cc1cnc2c(c1)OCCN2c1ccc2cnc(CNC(=O)c3cc(F)c4c(c3)S(=O)(=O)[C@@H](C)COC4)cc2n1 [Compound 554]	8.07	9.64	7.08
CC1CN(c2cccc(-c3ccc4cnc(CNC(=O)c5ccc6c(c5)S(=O)(=O)C(C)CN6C)cc4n3)n2)CC(C)O1 (stereo not drawn) [Compound 567]	7.48	16.28	6.27
O=C(NCc1cc2nc(-n3cc(F)c(N4CCOCC4)n3)ccc2cn1)c1ccc2c(c1)S(=O)(=O)CCOC2 [Compound 574]	6.56	6.49	5.75
C[C@H]1CN(c2cccc(-c3ccc4cnc(CNC(=O)c5ccc(Cl)c(S(C)(=O)=O)c5)cc4n3)n2)CC[C@@H]1O [Compound 575]	8.27	15.34	7.08
C[C@@H]1CN(c2cccc(-c3ccc4cnc(CNC(=O)c5ccc(COC6CC6)c(S(C)(=O)=O)c5)cc4n3)n2)C[C@H](C)O1 [Compound 578]	7.56	19.00	6.28
CC[C@@H]1CCS(=O)(=O)c2cc(C(=O)NCc3cc4nc(-c5cccc(N6C[C@@H](C)O[C@@H](C)C6)n5)ccc4cn3)ccc2O1 [Compound 580]	6.98	16.67	5.75
C[C@@H]1CN(c2cccc(-c3ccc4cnc(CNC(=O)c5ccc6c(c5)S(=O)(=O)CC[C@@H](C(F)F)O6)cc4n3)n2)C[C@H](C)O1 [Compound 581]	6.81	15.23	5.63
COC1(Cn2ccc3c(-c4ccc5cnc(CNC(=O)c6ccc7c(c6)S(=O)(=O)CCOC7)cc5n4)ccnc32)CC1 [Compound 585]	7.40	9.22	6.43
C[C@@H]1CN(c2cccc(-c3ccc4cnc(CNC(=O)c5ccc6c(c5)S(=O)(=O)CCC(F)(F)C6)cc4n3)n2)C[C@H](C)O1 [Compound 587]	7.95	5.69	7.19
CC1CN(c2cccc(-c3ccc4cnc(CNC(=O)c5cnc6c(c5)S(=O)(=O)C(C)CC6)cc4n3)n2)CC(C)O1 (stereo not drawn) [Compound 597]	7.38	11.61	6.32
